Measurements: patent US20100298141A1, “SUBSTITUTED PYRIDINE N-OXIDE HERBICIDES” (E. I. DU PONT DE NEMOURS AND COMPANY, priority 2007, published 2010)

Assays:
large crabgrass = assay: Test F preemergence test; type: in vivo, Digitaria sanguinalis; conditions: scale 0 to 100
How it was run: (§1)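 Preemergence application to planted seeds, or postemergence to sugarcane plants; compound in non-phytotoxic solvent mix plus surfactant. Greenhouse, 14-21 days. Visual rating vs. controls.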

annual bluegrass = assay: Test F preemergence test; type: in vivo, Poa annua; conditions: scale 0 to 100
How it was run: as §1

Virginia dayflower = assay: Test F preemergence test; type: in vivo, Commelina virginica; conditions: scale 0 to 100
How it was run: as §1

purple nutsedge = assay: Test F preemergence test; type: in vivo, Cyperus rotundus; conditions: scale 0 to 100
How it was run: as §1

bermudagrass = assay: Test F preemergence test; type: in vivo, Cynodon dactylon; conditions: scale 0 to 100
How it was run: as §1

broadleaf signalgrass = assay: Test F preemergence test; type: in vivo, Brachiaria platyphylla; conditions: scale 0 to 100
How it was run: as §1

goosegrass = assay: Test F preemergence test; type: in vivo, Eleusine indica; conditions: scale 0 to 100
How it was run: as §1

Surinam grass = assay: Test F preemergence test; type: in vivo, Brachiaria decumbens; conditions: scale 0 to 100
How it was run: as §1

Italian ryegrass = assay: Test F preemergence test; type: in vivo, Lolium multiflorum; conditions: scale 0 to 100
How it was run: as §1

rice = assay: Test C flooded paddy test; type: in vivo, Oryza sativa; conditions: Flood
How it was run: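 Visual injury ratings against untreated controls, taken 13 to 15 days after compound was added to paddy water standing 3 cm above the soil.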

johnsongrass = assay: Test F preemergence test; type: in vivo, Sorghum halepense; conditions: scale 0 to 100
How it was run: as §1

naked crabgrass = assay: Test F preemergence test; type: in vivo, Digitaria nuda; conditions: scale 0 to 100
How it was run: as §1

pitted morningglory = assay: Test F preemergence test; type: in vivo, Ipomoea lacunosa; conditions: scale 0 to 100
How it was run: as §1

common ragweed = assay: Test F preemergence test; type: in vivo, Ambrosia elation; conditions: scale 0 to 100
How it was run: as §1

morningglory = assay: Test C pre-/postemergence test; type: in vivo, Ipomoea coccinea
How it was run: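 Seeds were planted and treated preemergence with test chemical in a non-phytotoxic solvent mixture containing surfactant. Postemergence applications of the same formulation went onto plants 2 to 18 cm tall (1- to 4-leaf stage). A dash marks no test result.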

kochia = assay: Test F preemergence test; type: in vivo, Kochia scoparia; conditions: scale 0 to 100
How it was run: as §1

CCn1nc(C(F)(F)F)c(C[S+]([O-])c2cc(C)cc[n+]2[O-])c1OCC(F)(F)F (racemic) [Compound 66]
Plant response rating, Crabgrass, Large (large crabgrass; 16 g ai/ha, preemergence): 0 | Crabgrass, Large plant response rating (large crabgrass; 62 g ai/ha, Preemergence): 80 | Crabgrass, Large plant response rating (large crabgrass; 125 g ai/ha, preemergence): 95 | Plant response rating, Crabgrass, Large (large crabgrass; Preemergence, 31 g ai/ha): 70 | Plant response rating, Bluegrass (annual bluegrass; 16 g ai/ha, preemergence): 0 | Bluegrass plant response rating (annual bluegrass; 62 g ai/ha, Preemergence): 70 | Bluegrass plant response rating (annual bluegrass; 125 g ai/ha, preemergence): 80 | Plant response rating, Bluegrass (annual bluegrass; Preemergence, 31 g ai/ha): 20 | Plant response rating, Dayflower (Virginia dayflower; 16 g ai/ha, preemergence): 0 | Plant response rating, Dayflower (Virginia dayflower; Preemergence, 31 g ai/ha): 0 | Plant response rating, Purple Nutsedge (purple nutsedge; 16 g ai/ha, preemergence): 25 | Purple Nutsedge plant response rating (purple nutsedge; 62 g ai/ha, Preemergence): 60 | Purple Nutsedge plant response rating (purple nutsedge; 125 g ai/ha, preemergence): 100 | Plant response rating, Purple Nutsedge (purple nutsedge; Preemergence, 31 g ai/ha): 40 | Plant response rating, Bermudagrass (bermudagrass; 16 g ai/ha, preemergence): 40 | Bermudagrass plant response rating (bermudagrass; 62 g ai/ha, Preemergence): 75 | Bermudagrass plant response rating (bermudagrass; 125 g ai/ha, preemergence): 98 | Plant response rating, Bermudagrass (bermudagrass; Preemergence, 31 g ai/ha): 60 | Plant response rating, Signalgrass (broadleaf signalgrass; 16 g ai/ha, preemergence): 30 | Signalgrass plant response rating (broadleaf signalgrass; 125 g ai/ha, preemergence): 95 | Plant response rating, Signalgrass (broadleaf signalgrass; Preemergence, 62 g ai/ha): 65 | Plant response rating, Signalgrass (broadleaf signalgrass; Preemergence, 31 g ai/ha): 30 | Plant response rating, Goosegrass (goosegrass; 16 g ai/ha, preemergence): 40 | Goosegrass plant response rating (goosegrass; 62 g ai/ha, Preemergence): 75 | Goosegrass plant response rating (goosegrass; 125 g ai/ha, preemergence): 100 | Plant response rating, Goosegrass (goosegrass; Preemergence, 31 g ai/ha): 60 | Plant response rating, Surinam Grass (Surinam grass; 16 g ai/ha, preemergence): 0 | Surinam Grass plant response rating (Surinam grass; 125 g ai/ha, preemergence): 100 | Plant response rating, Surinam Grass (Surinam grass; Preemergence, 62 g ai/ha): 98 | Plant response rating, Surinam Grass (Surinam grass; Preemergence, 31 g ai/ha): 90 | Plant response rating, Ryegrass, Italian (Italian ryegrass; 16 g ai/ha, preemergence): 0 | Ryegrass, Italian plant response rating (Italian ryegrass; 125 g ai/ha, preemergence): 70 | Plant response rating, Ryegrass, Italian (Italian ryegrass; Preemergence, 62 g ai/ha): 60 | Plant response rating, Ryegrass, Italian (Italian ryegrass; Preemergence, 31 g ai/ha): 50 | Plant response rating, Rice (rice; 62 g ai/ha, scale 0 to 100 (0 no effect, 100 complete control)): 20 | Plant response rating, Rice (rice; 250 g ai/ha, scale 0 to 100, 0 no effect, 100 complete control, 13 to 15 days): 70 | Plant response rating, Johnsongrass (johnsongrass; 16 g ai/ha, preemergence): 35 | Johnsongrass plant response rating (johnsongrass; 62 g ai/ha, Preemergence): 90 | Johnsongrass plant response rating (johnsongrass; 125 g ai/ha, preemergence): 100 | Plant response rating, Johnsongrass (johnsongrass; Preemergence, 31 g ai/ha): 65 | Plant response rating, Crabgrass, Naked (naked crabgrass; 16 g ai/ha, preemergence): 0 | Crabgrass, Naked plant response rating (naked crabgrass; 62 g ai/ha, Preemergence): 100 | Crabgrass, Naked plant response rating (naked crabgrass; 125 g ai/ha, preemergence): 100 | Plant response rating, Crabgrass, Naked (naked crabgrass; Preemergence, 31 g ai/ha): 25 | Plant response rating, Morningglory (pitted morningglory; 16 g ai/ha, preemergence): 0 | Morningglory plant response rating (pitted morningglory; 62 g ai/ha, Preemergence): 80 | Morningglory plant response rating (pitted morningglory; 125 g ai/ha, preemergence): 100 | Plant response rating, Morningglory (pitted morningglory; Preemergence, 31 g ai/ha): 65 | Plant response rating, Ragweed (common ragweed; 16 g ai/ha, preemergence): 0 | Ragweed plant response rating (common ragweed; 125 g ai/ha, preemergence): 80 | Plant response rating, Ragweed (common ragweed; Preemergence, 62 g ai/ha): 70 | Plant response rating, Ragweed (common ragweed; Preemergence, 31 g ai/ha): 70 | Morningglory plant response rating (morningglory; 62 g ai/ha, Preemergence, scale 0 to 100): 90 | Morningglory plant response rating (morningglory; 125 g ai/ha, preemergence, scale 0 (no effect) to 100 (complete control)): 90 | Plant response rating, Morningglory (morningglory; Preemergence, 31 g ai/ha, scale 0 to 100 (0 no effect, 100 complete control)): 50 | Morningglory plant response rating (morningglory; preemergence, 250 g ai/ha, scale 0 (no effect) to 100 (complete control)): 100 | Plant response rating, Kochia (kochia; 16 g ai/ha, preemergence): 0 | Kochia plant response rating (kochia; 62 g ai/ha, Preemergence): 15 | Kochia plant response rating (kochia; 125 g ai/ha, preemergence): 90 | Plant response rating, Kochia (kochia; Preemergence, 31 g ai/ha): 0
